# Experimental data as given in PubChem BioAssay AID256 (DTP/NCI, 2004).
# Several values for one entry are separate records, joined by “and”; a condition that tells them apart may be missing. Equal values may be shown once. Inconclusive results and toxic doses are left out. Residues, ends and D or L forms follow the SMILES beside them. *: point of attachment. Trt = c1ccc(C(c2ccccc2)(c2ccccc2)*)cc1; Boc = CC(C)(C)OC(=O)*
# Tested on: CD2F1 mice, L1210 leukemia ip, survival T/C
# Assay: NCI In Vivo Anticancer Drug Screen. Data for tumor model L1210 Leukemia (intraperitoneal) in CD2F1 (CDF1) mice
# Conditions: higher = longer survival
# How it was run: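 Compound-dosed mice with transplantable tumor versus matched vehicle controls; endpoint ratio T/C reported.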
# [1] = endpoint: mean survival time, dose: 100.0 mg/kg/injection, schedule: Q01DX001 (ip), vehicle: saline with Tween-80
# [2] = endpoint: mean survival time, dose: 200.0 mg/kg/injection, schedule: Q01DX001 (ip), vehicle: saline with Tween-80
# [3] = endpoint: mean survival time, dose: 400.0 mg/kg/injection, schedule: Q01DX001 (ip), vehicle: saline with Tween-80
# [4] = endpoint: mean survival time, dose: 100.0 mg/kg/injection, schedule: Q04DX003 (ip), vehicle: saline with Tween-80
# [5] = endpoint: mean survival time, dose: 200.0 mg/kg/injection, schedule: Q04DX003 (ip), vehicle: saline with Tween-80
# [6] = endpoint: mean survival time, dose: 400.0 mg/kg/injection, schedule: Q04DX003 (ip), vehicle: saline with Tween-80
# [7] = endpoint: mean survival time, dose: 100.0 mg/kg/injection, schedule: Q01DX009 (ip), vehicle: saline with Tween-80
# [8] = endpoint: mean survival time, dose: 200.0 mg/kg/injection, schedule: Q01DX009 (ip), vehicle: saline with Tween-80
# [9] = endpoint: mean survival time, dose: 400.0 mg/kg/injection, schedule: Q01DX009 (ip), vehicle: saline with Tween-80
# [10] = endpoint: mean survival time, dose: 100.0 mg/kg/injection, schedule: Q04DX002 (ip), vehicle: saline with Tween-80
# [11] = endpoint: mean survival time, dose: 200.0 mg/kg/injection, schedule: Q04DX002 (ip), vehicle: saline with Tween-80
# [12] = endpoint: mean survival time, dose: 400.0 mg/kg/injection, schedule: Q04DX002 (ip), vehicle: saline with Tween-80
# [13] = endpoint: mean survival time, dose: 12.5 mg/kg/injection, schedule: Q01DX009 (ip), vehicle: saline with Tween-80
# [14] = endpoint: mean survival time, dose: 25.0 mg/kg/injection, schedule: Q01DX009 (ip), vehicle: saline with Tween-80
# [15] = endpoint: mean survival time, dose: 50.0 mg/kg/injection, schedule: Q01DX009 (ip), vehicle: saline with Tween-80
# [16] = endpoint: mean survival time, dose: 100.0 mg/kg/injection, schedule: Q04DX003 (ip), vehicle: saline
# [17] = endpoint: mean survival time, dose: 200.0 mg/kg/injection, schedule: Q04DX003 (ip), vehicle: saline
# [18] = endpoint: mean survival time, dose: 400.0 mg/kg/injection, schedule: Q04DX003 (ip), vehicle: saline
smiles,measurement,setting,value
Cc1cc(C)c(NS(=O)(=O)c2ccccc2)c(C)n1,T/C,[1],103 % of control
same,T/C,[2],104 % of control
same,T/C,[3],104 % of control
OC1CCCCC1O (stereo unspecified),T/C,[4],101 % of control
same,T/C,[5],100 % of control
same,T/C,[6],103 % of control
O=C(Nc1ccc(Cl)cc1)OCCN1CCOCC1,T/C,[7],90 % of control
same,T/C,[4],93 % of control
same,T/C,[8],92 % of control
same,T/C,[5],94 % of control
same,T/C,[9],91 % of control
same,T/C,[6],89 % of control
COc1ccc(OC)c(NC(=O)Oc2ccc(C(=O)OCc3ccccc3)cc2)c1,T/C,[7],101 % of control
same,T/C,[8],104 % of control
same,T/C,[9],104 % of control
CN1C2CCC1CNC2,T/C,[4],103 % of control
same,T/C,[5],101 % of control
same,T/C,[6],103 % of control
Cc1cc(C)c(NC(=O)c2ccccc2Cl)c(C)c1,T/C,[4],97 % of control
same,T/C,[5],110 % of control
same,T/C,[6],97 % of control
CC1CCCCC1NC(=O)Nc1ccccc1 (stereo unspecified),T/C,[4],94 % of control
same,T/C,[5],92 % of control
O=C(O)/C=C/C=C/C(=O)O,T/C,[1],102 % of control and 101 % of control
same,T/C,[2],104 % of control and 93 % of control
same,T/C,[3],100 % of control and 101 % of control
Cc1ccc(S(=O)(=O)OCC2OCOC(COS(=O)(=O)c3ccc(C)cc3)C(OS(=O)(=O)c3ccc(C)cc3)C2OS(=O)(=O)c2ccc(C)cc2)cc1 (stereo unspecified),T/C,[10],88 % of control
same,T/C,[11],100 % of control
same,T/C,[12],107 % of control
COC(=O)CCNc1ccccc1,T/C,"endpoint: mean survival time, dose: 100.0 mg/kg/injection, schedule: Q01DX001 (ip), vehicle: Klucel (hydroxypropylcellulose) (HPC)",101 % of control
same,T/C,[4],100 % of control
same,T/C,"endpoint: mean survival time, dose: 200.0 mg/kg/injection, schedule: Q01DX001 (ip), vehicle: Klucel (hydroxypropylcellulose) (HPC)",101 % of control
same,T/C,[5],96 % of control
same,T/C,"endpoint: mean survival time, dose: 400.0 mg/kg/injection, schedule: Q01DX001 (ip), vehicle: Klucel (hydroxypropylcellulose) (HPC)",96 % of control
same,T/C,[6],96 % of control
O=S(=O)(N=N/C=C1\C=CC=CN1O)c1cccs1,T/C,[13],95 % of control
same,T/C,[14],101 % of control
same,T/C,[15],103 % of control
same,T/C,[7],109 % of control
same,T/C,[8],104 % of control
Cc1cccc(NNC(=S)Nc2ccccc2)c1,T/C,[16],94 % of control
same,T/C,[17],100 % of control
same,T/C,[18],100 % of control
CN=C(NC)c1ccc(NC(=O)/C=C\c2ccc(/C=C/C(=O)Nc3ccc(C(=NC)NC)cc3)cc2)cc1,T/C,"endpoint: median survival time, dose: 1.5 mg/kg/injection, schedule: Q01DX009 (ip), vehicle: Klucel (hydroxypropylcellulose) (HPC)",112 % of control
same,T/C,"endpoint: median survival time, dose: 3.0 mg/kg/injection, schedule: Q01DX009 (ip), vehicle: Klucel (hydroxypropylcellulose) (HPC)",124 % of control
same,T/C,"endpoint: median survival time, dose: 3.12 mg/kg/injection, schedule: Q01DX009 (ip), vehicle: Klucel (hydroxypropylcellulose) (HPC)",151 % of control
same,T/C,"endpoint: median survival time, dose: 6.0 mg/kg/injection, schedule: Q01DX009 (ip), vehicle: Klucel (hydroxypropylcellulose) (HPC)",181 % of control
same,T/C,"endpoint: median survival time, dose: 6.25 mg/kg/injection, schedule: Q01DX009 (ip), vehicle: Klucel (hydroxypropylcellulose) (HPC)",186 % of control
same,T/C,"endpoint: median survival time, dose: 12.0 mg/kg/injection, schedule: Q01DX009 (ip), vehicle: Klucel (hydroxypropylcellulose) (HPC)",124 % of control
same,T/C,"endpoint: median survival time, dose: 12.5 mg/kg/injection, schedule: Q01DX009 (ip), vehicle: Klucel (hydroxypropylcellulose) (HPC)",124 % of control
CCNC1=C(C)C(=O)C2=C(C1=O)C(COC(N)=O)C1(O)C3C(CN21)N3C (stereo unspecified),T/C,"endpoint: mean survival time, dose: 1.5 mg/kg/injection, schedule: Q01DX001 (ip), vehicle: saline",98 % of control
same,T/C,"endpoint: mean survival time, dose: 3.0 mg/kg/injection, schedule: Q01DX001 (ip), vehicle: saline",95 % of control
same,T/C,"endpoint: mean survival time, dose: 6.0 mg/kg/injection, schedule: Q01DX001 (ip), vehicle: saline",101 % of control
same,T/C,"endpoint: mean survival time, dose: 12.0 mg/kg/injection, schedule: Q01DX001 (ip), vehicle: saline",93 % of control
same,T/C,"endpoint: mean survival time, dose: 24.0 mg/kg/injection, schedule: Q01DX001 (ip), vehicle: saline",95 % of control
same,T/C,"endpoint: mean survival time, dose: 30.0 mg/kg/injection, schedule: Q01DX001 (ip), vehicle: water",100 % of control
same,T/C,"endpoint: mean survival time, dose: 60.0 mg/kg/injection, schedule: Q01DX001 (ip), vehicle: water",101 % of control
SCC1=NCCN1,T/C,"endpoint: mean survival time, dose: 25.0 mg/kg/injection, schedule: Q04DX002 (ip), vehicle: saline",103 % of control
same,T/C,"endpoint: mean survival time, dose: 50.0 mg/kg/injection, schedule: Q04DX002 (ip), vehicle: saline",98 % of control
same,T/C,"endpoint: mean survival time, dose: 100.0 mg/kg/injection, schedule: Q04DX002 (ip), vehicle: saline",93 % of control and 95 % of control
CC1(C)N=C(N)N=C(N)N1c1ccc(OCCNS(=O)(=O)c2cccc(S(=O)(=O)F)c2)c(Cl)c1,T/C,[13],108 % of control
same,T/C,[14],110 % of control
same,T/C,[15],117 % of control
same,T/C,[1],97 % of control
same,T/C,[7],164 % of control
same,T/C,[10],97 % of control
same,T/C,[2],107 % of control
same,T/C,[8],94 % of control
same,T/C,[11],108 % of control
same,T/C,[3],111 % of control
same,T/C,[12],101 % of control
CC(=O)C(C(c1ccccc1)C1CCCc2ccccc21)N1CCOCC1 (stereo unspecified),T/C,[7],104 % of control
same,T/C,[4],103 % of control
same,T/C,[8],98 % of control
same,T/C,[5],100 % of control
same,T/C,[9],95 % of control
same,T/C,[6],101 % of control
c1ccc([O+](c2ccccc2)c2ccccc2)cc1,T/C,"endpoint: mean survival time, dose: 0.63 mg/kg/injection, schedule: Q01DX009 (ip), vehicle: saline with Tween-80",102 % of control
same,T/C,"endpoint: mean survival time, dose: 1.25 mg/kg/injection, schedule: Q01DX009 (ip), vehicle: saline with Tween-80",113 % of control
same,T/C,"endpoint: mean survival time, dose: 2.5 mg/kg/injection, schedule: Q01DX009 (ip), vehicle: saline with Tween-80",107 % of control
same,T/C,"endpoint: mean survival time, dose: 5.0 mg/kg/injection, schedule: Q01DX009 (ip), vehicle: saline with Tween-80",90 % of control and 112 % of control
CCN1CCCC(Nc2nc(Nc3ccc(Cl)c(Cl)c3)nc3ccc(Cl)cc23)C1 (stereo unspecified),T/C,[4],89 % of control
same,T/C,[5],94 % of control
N#CC(/C=C/c1ccccc1)Nc1ccccc1CO (stereo unspecified),T/C,[4],97 % of control
same,T/C,[5],105 % of control
same,T/C,[6],117 % of control
Nc1c[n+]([O-])cc2ccccc12,T/C,[4],94 % of control
same,T/C,[5],94 % of control
CC1(c2ccccc2)OCCO1,T/C,[1],97 % of control
same,T/C,[7],95 % of control
same,T/C,[4],100 % of control
same,T/C,[2],94 % of control
same,T/C,[8],93 % of control
same,T/C,[5],100 % of control
same,T/C,[3],97 % of control
same,T/C,[9],97 % of control
same,T/C,[6],97 % of control
C=C[CH2][Sn]([CH2]C=C)([CH2]CCC)[CH2]CCC,T/C,"endpoint: mean survival time, dose: 6.25 mg/kg/injection, schedule: Q01DX009 (ip), vehicle: saline with Tween-80",95 % of control
same,T/C,[13],100 % of control
same,T/C,[14],94 % of control
CC(C)(C)OC(=O)NCCCCC(NC(=O)CNC(=O)C(CSC(c1ccccc1)(c1ccccc1)c1ccccc1)NC(=O)OC(C)(C)C)C(=O)O (stereo unspecified) (Boc-Cys(Trt)-Gly-Lys(Boc)-OH; configuration not given here),T/C,"endpoint: mean survival time, dose: 100.0 mg/kg/injection, schedule: Q04DX003 (ip), vehicle: saline sonified",86 % of control
c1ccc(C(Nc2ncnc3nncnc23)c2ccccc2)cc1,T/C,"endpoint: mean survival time, dose: 75.0 mg/kg/injection, schedule: Q01DX001 (ip), vehicle: other",94 % of control
O=C1c2ccccc2S(=O)(=O)N1CCBr,T/C,[7],97 % of control
same,T/C,[4],106 % of control
same,T/C,[8],100 % of control
same,T/C,[5],106 % of control
same,T/C,[9],102 % of control
same,T/C,[6],110 % of control
Cc1nc2ccccc2[nH]1,T/C,[1],102 % of control
same,T/C,[2],105 % of control
O=C1CCSc2ccccc21,T/C,"endpoint: mean survival time, dose: 75.0 mg/kg/injection, schedule: Q01DX009 (ip), vehicle: saline with Tween-80",95 % of control
same,T/C,[4],104 % of control
same,T/C,[16],100 % of control
same,T/C,"endpoint: mean survival time, dose: 150.0 mg/kg/injection, schedule: Q01DX009 (ip), vehicle: saline with Tween-80",102 % of control
same,T/C,[5],101 % of control
same,T/C,[17],100 % of control
same,T/C,"endpoint: mean survival time, dose: 300.0 mg/kg/injection, schedule: Q01DX009 (ip), vehicle: saline with Tween-80",96 % of control
same,T/C,[6],102 % of control
same,T/C,[18],100 % of control
CC(=O)C1=CCC2C3CC=C4CC(OC#N)CCC4(C)C3CCC12C (stereo unspecified),T/C,[7],97 % of control
same,T/C,[8],92 % of control
same,T/C,[9],89 % of control
Cc1ccc(NC(=O)N(CCCl)N=O)cc1Cl,T/C,"endpoint: mean survival time, dose: 13.0 mg/kg/injection, schedule: Q01DX001 (ip), vehicle: carboxymethylcellulose (CMC)",176 % of control
CCOC(=O)/C=C/SCCCC(=O)O,T/C,[1],100 % of control
same,T/C,[2],105 % of control
same,T/C,[3],95 % of control
CC(=O)OC(C(=O)NC(CC(C)C)C(=O)O)c1ccccc1 (stereo unspecified),T/C,[4],98 % of control
same,T/C,[5],95 % of control
same,T/C,[6],103 % of control
CC(=O)C1CCC2C3CCC4=CC(=O)CC4(C)C3CCC12C (stereo unspecified),T/C,[4],113 % of control
same,T/C,[5],124 % of control
